In patent US20230331719A1, “Pyrazolopyridine Compounds and Methods of Inhibiting IRE1 Using Same” (OPTIKIRA, LLC, priority 2020, published 2023):

Tests used:
XBP1 = assay: Cellular XBP1 splicing assay (NanoLuc luciferase reporter); format: cell-based; details: Homo sapiens; ARPE-19 cells stably expressing XBP1-nano-luciferase; thapsigargin 150 nM, 4 hour incubation
Description: ARPE-19 cells stably expressing XBP1 (a.a. 1-376) with nano-luciferase gene sequence linked so it is in frame when XBP1 is spliced, were cultured in F12 media, 10 % FBS, 0.044% sodium bicarbonate, 150 µg/ml hygromycin B and seeded for assays at 5,000 cells in 384 well plates in culture media without hygromycin B and incubated at 37° C./5% CO2. After overnight incubation test compounds were added to the cell plate in a 10-point ½ log dilution series in duplicate (final DMSO concentration 0.117 %). After further incubation of 30 minutes thapsigargin was added (final concentration 150 nM) and then another 4 hour incubation. A NanoLuc luciferase assay (Promega) was used according to the manufacturer’s instructions to detect the luciferase and luminescence measured on a luminometer (EnVision, PerkinElmer). IC50 values calculated by fitting a sigmoidal curve to percent inhibition of control of compound concentration.

IRE1α RNase = IRE1α RNase (Homo sapiens (Human), UniProt O75460); assay: Inhibition of RNase activity of IRE1α; format: biochemical; details: 0.325 nM enzyme, 100 nM substrate, 20 minutes at room temperature
IRE1α RNase, sequence (O75460 468-977): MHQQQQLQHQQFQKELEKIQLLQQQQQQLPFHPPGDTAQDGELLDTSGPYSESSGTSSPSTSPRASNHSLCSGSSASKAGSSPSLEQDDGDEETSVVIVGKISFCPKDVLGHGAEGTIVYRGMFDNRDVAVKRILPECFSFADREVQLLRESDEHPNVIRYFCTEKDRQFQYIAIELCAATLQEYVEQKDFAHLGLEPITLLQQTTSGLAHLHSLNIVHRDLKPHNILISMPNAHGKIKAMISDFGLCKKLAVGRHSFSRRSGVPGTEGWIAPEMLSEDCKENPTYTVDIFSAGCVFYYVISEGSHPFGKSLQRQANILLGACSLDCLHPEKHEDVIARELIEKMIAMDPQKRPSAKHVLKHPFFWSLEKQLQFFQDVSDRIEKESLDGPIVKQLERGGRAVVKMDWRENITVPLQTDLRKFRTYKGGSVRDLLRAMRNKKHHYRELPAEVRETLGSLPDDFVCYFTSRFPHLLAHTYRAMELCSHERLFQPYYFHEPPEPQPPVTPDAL
Description: The RNase reactions were performed in 384 well black ProxiPlate-384 Plus plates (PERKIN Elmer) using 50 mM Tris assay buffer with 0.5 mM MgCl2, 10 mM KCl, 0.03 % Tween, 2 mM DTT and 1% DMSO. Test compounds were prepared on the day of assay and dispensed using D300 digital dispenser as a 10-point ½ log dilution series in duplicate, normalized to a final DMSO concentration of […]. Test compounds were pre-incubated for 30 min at room temperature with IRE1α kinase (E31-11G from Signal Chem) in 2.5 µL of assay buffer. Then 2.5 µl of assay buffer containing substrate (5′ Alexa Fluor 647 - rCrArUrGrUrC rCrGrCrArGrCrGrCrArUrG - Iowa Black RQ quencher 3′) (SEQ ID NO:1) added, giving a final concentration of enzyme of 0.325 nM and of substrate of 100 nM. After 20 minutes incubation at room temperature the reactions were stopped by added 5 µL of 5 M urea, incubated at room temperature for 10 minutes and fluorescence measured on a plate reader (EnVision, PerkinElmer). IC50 values calculated by fitting a sigmoidal curve to percent inhibition of control versus compound concentration.

IRE1α kinase = IRE1α kinase (Homo sapiens (Human), UniProt O75460); assay: Inhibition of kinase activity of IRE1α (ADP-Glo); format: biochemical; details: 5 nM IRE1α kinase, 100 µM ATP, 4 hours at room temperature
IRE1α kinase, sequence (O75460 468-977): as above
Description: The kinase reactions were performed in 384 well white ProxiPlate-384 Plus plates (PERKIN Elmer 6008280) using 25 mM MOPS assay buffer with 1 mM dithiothreitol, 25 mM MgCl2, 12.5 mM β-glycerophosphate, 5 mM EGTA, and 50 µg/mL BSA. Test compounds were prepared on the day of assay and dispensed using D300 digital dispenser as a 10-point ½ log dilution series in duplicate, normalized to a final DMSO concentration of 3%. Test compounds were pre-incubated for 30 min at room temperature with 10 nM IRE1α kinase (E31-11G from Signal Chem) in 2.5 µL of assay buffer and the reaction started by addition of 2.5 µL of ATP in assay buffer, to give a final ATP concentration of 100 µm and 5 nM IRE1α kinase. After 4 hours incubation at room temperature the reactions were stopped and the kinase activity determined using the ADP-Glo™ reagent from Promega, according to the manufacturer’s instructions. Luminescence was measured on a luminometer (EnVision, PerkinElmer) and IC50 values calculated by fitting a sigmoidal curve to percent inhibition of control versus Log10 of compound concentration.

Structure (SMILES)	IC50 (XBP1) [nM]	IC50 (IRE1α RNase) [nM]	IC50 (IRE1α kinase) [nM]
COCCN[C@H]1CC[C@H](c2cnc(N)c3c(-c4cc(F)c(NS(=O)(=O)c5cc(C)ccc5Cl)cc4F)nn(C(C)C)c32)CC1 [Compound A4, N-(4-(4-amino-1-isopropyl-7-((1r,4r)-4-((2-methoxyethyl)amino)cyclohexyl)-1H-pyrazolo[4,3-c]pyridin-3-yl)-2,5-difluorophenyl)-2-chloro-5-methylbenzenesulfonamide]	3.3	2.8	–
COCCN[C@H]1CC[C@H](c2cnc(N)c3c(-c4cc(F)c(NS(=O)(=O)c5cc(C)ccc5F)cc4F)nn(C(C)C)c32)CC1 [Compound A5, N-(4-(4-amino-1-isopropyl-7-((1r,4r)-4-((2-methoxyethyl)amino)cyclohexyl)-1H-pyrazolo[4,3-c]pyridin-3-yl)-2,5-difluorophenyl)-2-fluoro-5-methylbenzenesulfonamide]	6.8	3.1	–
CCOc1ccc(F)c(S(=O)(=O)Nc2cc(F)c(-c3nn(C(C)C)c4c3c(N)ncc4[C@H]3CC[C@H](NCC(C)(C)OC)CC3)cc2F)c1 [Compound A6, N-(4-(4-amino-1-isopropyl-7-((1r,4r)-4-((2-methoxy-2-methylpropyl)amino)cyclohexyl)-1H-pyrazolo[4,3-c]pyridin-3-yl)-2,5-difluorophenyl)-5-ethoxy-2-fluorobenzenesulfonamide]	6.7	–	–
CC(C)n1nc(-c2cc(F)c(NS(=O)(=O)c3ccccc3F)cc2F)c2c(N)ncc([C@H]3CC[C@H](NCCOC(F)(F)F)CC3)c21 [Compound A8, N-(4-(4-amino-1-isopropyl-7-((1r,4r)-4-((2-(trifluoromethoxy)ethyl)amino)cyclohexyl)-1H-pyrazolo[4,3-c]pyridin-3-yl)-2,5-difluorophenyl)-2-fluorobenzenesulfonamide]	39.3	17.9	–
CCOc1ccc(F)c(S(=O)(=O)Nc2cc(F)c(-c3nn(C(C)C)c4c3c(N)ncc4[C@H]3CC[C@H](NCC(C)F)CC3)cc2F)c1 (stereo partly shown) [Compound A9, N-(4-(4-amino-7-((1r,4r)-4-((2-fluoropropyl)amino)cyclohexyl)-1-isopropyl-1H-pyrazolo[4,3-c]pyridin-3-yl)-2,5-difluorophenyl)-5-ethoxy-2-fluorobenzenesulfonamide]	7.5	–	–
CC(C)n1nc(-c2cc(F)c(NS(=O)(=O)c3cc(Cl)ccc3Cl)cc2F)c2c(N)ncc([C@H]3CC[C@H](N4CCOCC4)CC3)c21 [Compound A10, N-(4-(4-amino-1-isopropyl-7-((1r,4r)-4-morpholinocyclohexyl)-1H-pyrazolo[4,3-c]pyridin-3-yl)-2,5-difluorophenyl)-2,5-dichlorobenzenesulfonamide]	4.6	3.3	1.6
CC(C)n1nc(-c2cc(F)c(NS(=O)(=O)Cc3ccccc3Cl)cc2F)c2c(N)ncc([C@H]3CC[C@H](N4CCOCC4)CC3)c21 [Compound A19, N-(4-(4-amino-1-isopropyl-7-((1r,4r)-4-morpholinocyclohexyl)-1H-pyrazolo[4,3-c]pyridin-3-yl)-2,5-difluorophenyl)-1-(2-chlorophenyl)methanesulfonamide]	11.1	–	–

Results, then the compound that gave them:

IC50 (XBP1) [nM]	IC50 (IRE1α RNase) [nM]	IC50 (IRE1α kinase) [nM]	Structure (SMILES)
14.5	2.7	–	COCCN[C@H]1CC[C@H](c2cnc(N)c3c(-c4cc(F)c(NS(=O)(=O)c5cc(OC(F)F)ccc5Cl)cc4F)nn(C(C)C)c32)CC1 [Compound A1, N-(4-(4-amino-1-isopropyl-7-((1r,4r)-4-((2-methoxyethyl)amino)cyclohexyl)-1H-pyrazolo[4,3-c]pyridin-3-yl)-2,5-difluorophenyl)-2-chloro-5-(difluoromethoxy)benzenesulfonamide]
12.2	4.8	–	[2H]C([2H])([2H])Oc1ccc(F)c(S(=O)(=O)Nc2cc(F)c(-c3nn(C(C)C)c4c3c(N)ncc4[C@H]3CC[C@H](NCCOC)CC3)cc2F)c1 [Compound A2, N-(4-(4-amino-1-isopropyl-7-((1r,4r)-4-((2-methoxyethyl)amino)cyclohexyl)-1H-pyrazolo[4,3-c]pyridin-3-yl)-2,5-difluorophenyl)-2-fluoro-5-(methoxy-d3)benzenesulfonamide]
15	3.4	–	COCCN[C@H]1CC[C@H](c2cnc(N)c3c(-c4cc(F)c(NS(=O)(=O)c5cc(OC(F)(F)F)ccc5Cl)cc4F)nn(C(C)C)c32)CC1 [Compound A3, N-(4-(4-amino-1-isopropyl-7-((1r,4r)-4-((2-methoxyethyl)amino)cyclohexyl)-1H-pyrazolo[4,3-c]pyridin-3-yl)-2,5-difluorophenyl)-2-chloro-5-(trifluoromethoxy)benzenesulfonamide]
6.1	–	–	CCOc1ccc(F)c(S(=O)(=O)Nc2cc(F)c(-c3nn(C(C)C)c4c3c(N)ncc4[C@H]3CC[C@H](NC4CC(F)(F)C4)CC3)cc2F)c1 [Compound A7, N-(4-(4-amino-7-((1r,4r)-4-((3,3-difluorocyclobutyl)amino)cyclohexyl)-1-isopropyl-1H-pyrazolo[4,3-c]pyridin-3-yl)-2,5-difluorophenyl)-5-ethoxy-2-fluorobenzenesulfonamide]
11.6	4.8	2.1	CC(C)n1nc(-c2cc(F)c(NS(=O)(=O)Cc3ccccc3F)cc2F)c2c(N)ncc([C@H]3CC[C@H](N4CCOCC4)CC3)c21 [Compound A11, N-(4-(4-amino-1-isopropyl-7-((1r,4r)-4-morpholinocyclohexyl)-1H-pyrazolo[4,3-c]pyridin-3-yl)-2,5-difluorophenyl)-1-(2-fluorophenyl)methanesulfonamide]
1650	466	–	CC(C)n1nc(-c2cc(F)c(NS(=O)(=O)c3ccccc3F)cc2F)c2c(N)ncc([C@H]3CC[C@@H](N4CCOCC4)CC3)c21 [Compound A14, N-(4-(4-amino-1-isopropyl-7-((1s,4s)-4-morpholinocyclohexyl)-1H-pyrazolo[4,3-c]pyridin-3-yl)-2,5-difluorophenyl)-2-fluorobenzenesulfonamide]
7.2	–	–	CCOc1ccc(F)c(S(=O)(=O)Nc2cc(F)c(-c3nn(C(C)C)c4c3c(N)ncc4[C@H]3CC[C@H](N4CCOCC4)CC3)cc2F)c1 [Compound A15, N-(4-(4-amino-1-isopropyl-7-((1r,4r)-4-morpholinocyclohexyl)-1H-pyrazolo[4,3-c]pyridin-3-yl)-2,5-difluorophenyl)-5-ethoxy-2-fluorobenzenesulfonamide]
26.9	–	–	CC(C)n1nc(-c2cc(F)c(NS(=O)(=O)c3cc(F)ccc3F)cc2F)c2c(N)ncc([C@H]3CC[C@H](N4CCOCC4)CC3)c21 [Compound A16, N-(4-(4-amino-1-isopropyl-7-((1r,4r)-4-morpholinocyclohexyl)-1H-pyrazolo[4,3-c]pyridin-3-yl)-2,5-difluorophenyl)-2,5-difluorobenzenesulfonamide]
–	–	1.3	Cc1ccc(F)c(S(=O)(=O)Nc2cc(F)c(-c3nn(C(C)C)c4c3c(N)ncc4[C@H]3CC[C@H](NC[C@H](C)F)CC3)cc2F)c1 [Compound A23, N-(4-(4-amino-7-((1S,4r)-4-(((S)-2-fluoropropyl)amino)cyclohexyl)-1-isopropyl-1H-pyrazolo[4,3-c]pyridin-3-yl)-2,5-difluorophenyl)-2-fluoro-5-methylbenzenesulfonamide]
–	–	0.893	Cc1ccc(F)c(S(=O)(=O)Nc2cc(F)c(-c3nn(C(C)C)c4c3c(N)ncc4[C@H]3CC[C@H](NC[C@@H](C)F)CC3)cc2F)c1 [Compound A24, N-(4-(4-amino-7-((1R,4r)-4-(((R)-2-fluoropropyl)amino)cyclohexyl)-1-isopropyl-1H-pyrazolo[4,3-c]pyridin-3-yl)-2,5-difluorophenyl)-2-fluoro-5-methylbenzenesulfonamide]
